Test [1] deals with T1, IRE1a (Homo sapiens, UniProt O75460). The test is described as follows: In vitro FRET assay (XBP1 RNA probe cleavage by IRE1a). Type of test: biochemical. The following applies: SignalChem IRE1a protein 2 nM. Set-up: purchased SignalChem. Here is the method:
In vitro FRET assay was performed to evaluate the ability of select compounds to inhibit IRE1, the results of which are summarized in Table 3. To perform the in vitro FRET assay, 1× complete assay buffer (CAB; […] DTT, 50 mM sodium citrate pH 7.15, 1 mM magnesium acetate, 0.02% tween 20) was used to dilute SignalChem IRE1a protein to a final concentration of 2 nM. Selected compounds were serially diluted with DMSO in a non-binding black 384-well plate for a total of 15 ul in each well. 2 ul of the serially diluted compound or DMSO control were then added to new wells containing 98 ul of 1×CAB, for a total volume of 100 ul, 10 ul of which were then transferred to wells of a new plate. 5 ul of the diluted IRE1a was then added to each well. 5 ul of a […] XBP1 RNA probe was then added to each well. Fluorescence was then read over 30 minutes in kinetic mode (485/515 nm).
Two RNA probes were used, XBP1 wildtype (SEQ ID NO: 2) which is able to be spliced by active IRE1a or XBP1 mutant (SEQ ID NO: 3) which is unable to be spliced. Each probe contained a 5′ 6-FAM modification and a 3′ IOWA Black FQ modification.

The target of test [2] is T1, IRE1a. The test is described as follows: IRE1a Endoribonuclease Nanoluciferase Assay (XBP1 luciferase reporter in 293 T cells). Format: cell-based. The conditions noted are these: 293 T cells transfected with XBP1 luciferase reporter plasmid. As for the experimental part:
Compounds disclosed herein were assessed for disruption of IRE1 signaling using a IRE1a Endoribonuclease Nanoluciferase Assay. Briefly, 2.5×10^6 293 T cells were seeded in a 10 cm^2 tissue culture plate. About 24 hours later, the cells were transfected with Effectene. In a 15 mL Tube, the following was added: 2 μg XBP1 luciferase reporter plasmid (PGK-Luc2-P2A-XBP1u-Nanoluciferase-PEST); 300 μl EC buffer; and 16 μl Enhancer, followed by incubation at room temp for 5 minutes. Next, 60 μl Effectene (Qiagen 301427) was added, followed by incubation at room temperature for 10 minutes. 2.6 mL cDMEM media was added. Old media was aspirated from the cells, followed by addition of 7 mL fresh media. Full transfection mixture was added dropwise to cells. Cells were incubated for 6 hours, followed by tripsinization, centrifugation and resuspension in 11 mL media. 100 uL of cells were plated per a well in a 96 well plate. A day later, stressors of choice+/− inhibitors were added. To harvest, media was aspirated from cells completely, then 50 uL 1× passive lysis buffer (Promega: E1941) was added per well and put on shaker (300 rpm) for 30 minutes at room temperature. Cells were centrifuged, and 15 uL sample per well was added to a new, opaque white 384 well plate (Corning 3570). 15 uL OneGlo (nanoluciferase kit, Promega N1630) was added. Plates were spun down, placed on shaker (300 rpm) for 10 minutes. Plates were read on luminometer, 1000 ms integration time per well. 15 uL Stop and Glo (nanoluciferase kit) was added. Plates were spun down, placed on shaker (300 rpm) for 10 minutes. Plates were read on luminometer, 1000 ms second integration time per well. Recordings are provided below in Table 4.
(A reporter such as luciferase makes a cellular process visible.)

Some results are limits rather than exact numbers.

T1 sequence (O75460 19-977): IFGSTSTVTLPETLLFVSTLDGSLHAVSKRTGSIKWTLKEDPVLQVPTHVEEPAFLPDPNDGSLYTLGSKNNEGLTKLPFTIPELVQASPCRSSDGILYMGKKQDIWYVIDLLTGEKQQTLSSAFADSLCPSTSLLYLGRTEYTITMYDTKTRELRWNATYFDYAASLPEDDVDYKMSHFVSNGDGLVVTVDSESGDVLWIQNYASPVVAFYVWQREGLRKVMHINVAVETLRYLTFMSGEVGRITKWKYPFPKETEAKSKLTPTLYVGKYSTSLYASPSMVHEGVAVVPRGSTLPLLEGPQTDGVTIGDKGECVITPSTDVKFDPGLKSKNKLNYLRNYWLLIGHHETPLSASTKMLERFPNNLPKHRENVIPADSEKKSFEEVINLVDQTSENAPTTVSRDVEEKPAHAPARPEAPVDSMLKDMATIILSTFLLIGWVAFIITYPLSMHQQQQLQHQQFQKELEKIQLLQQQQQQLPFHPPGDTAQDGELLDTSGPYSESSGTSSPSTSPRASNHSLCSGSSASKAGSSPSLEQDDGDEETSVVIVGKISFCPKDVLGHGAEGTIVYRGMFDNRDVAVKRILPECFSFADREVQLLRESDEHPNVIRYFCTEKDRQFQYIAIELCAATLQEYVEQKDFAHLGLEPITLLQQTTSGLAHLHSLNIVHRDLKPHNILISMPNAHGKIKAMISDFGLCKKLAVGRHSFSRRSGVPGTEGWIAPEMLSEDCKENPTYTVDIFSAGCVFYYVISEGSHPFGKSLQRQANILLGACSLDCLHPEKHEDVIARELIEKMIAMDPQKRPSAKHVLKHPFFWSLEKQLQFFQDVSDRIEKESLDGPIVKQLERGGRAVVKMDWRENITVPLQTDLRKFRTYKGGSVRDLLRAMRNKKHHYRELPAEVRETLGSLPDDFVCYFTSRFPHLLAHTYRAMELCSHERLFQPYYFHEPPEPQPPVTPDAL

Broadly, the IC50 is the midpoint of a concentration-inhibition curve. Low readings indicate higher potency, high ones lower potency. By EC50 is commonly meant the midpoint of the concentration-response curve. A lower EC50 goes with higher potency in that assay. On IRE1a [1], `CCc1cc(-c2cc(NC(=O)Cc3cc(C(F)(F)F)ccc3C(F)(F)F)nn2C)cc2cnc(N[C@H]3CC[C@H](NC(=O)CN)CC3)nc12` [Compound 44, 2-amino-N-((1r,4r)-4-((6-(3-(2-(2,5-bis(trifluoromethyl)phenyl)acetamido)-1-methyl-1H-pyrazol-5-yl)-8-ethylquinazolin-2-yl)amino)cyclohexyl)acetamide] gave an IC50 of 50 to 100 nM. This compound also displayed an EC50 on IRE1a [2] of 50 to 100 nM.

`CCc1cc(-c2cc(NC(=O)Nc3ccc(OC4CCN(C)CC4)c(C(F)(F)F)c3)nn2C)cc2cnc(N[C@H]3CC[C@H](N)CC3)nc12` [Compound 4; Formic Acid, 1-(5-(2-(((1r,4r)-4-aminocyclohexyl)amino)-8-ethylquinazolin-6-yl)-1-methyl-1H-pyrazol-3-yl)-3-(4-((1-methylpiperidin-4-yl)oxy)-3-(trifluoromethyl)phenyl)urea] came in with a 50% inhibitory concentration (IC50) against IRE1a [1] of at most 5 nM. Moreover, at IRE1a [2], the EC50 is at most 5 nM.

As to `CCc1cc(-c2cc(NC(=O)Cc3cc(C)cc(F)c3)nn2C)cc2cnc(N[C@H]3CC[C@H](N)CC3)nc12` [Compound 27, N-(5-(2-(((1r,4r)-4-aminocyclohexyl)amino)-8-ethylquinazolin-6-yl)-1-methyl-1H-pyrazol-3-yl)-2-(3-fluoro-5-methylphenyl)acetamide], the IC50 on IRE1a [1] was 5 to 50 nM. The same compound had an EC50 on IRE1a [2] above 100 nM.

For the compound `CCc1cc(-c2cc(NC(=O)C(C)c3cccc(C(F)(F)F)c3)nn2C)cc2cnc(N[C@H]3CC[C@H](N)CC3)nc12` (some centres unmarked) [Compound 25, N-(5-(2-(((1r,4r)-4-aminocyclohexyl)amino)-8-ethylquinazolin-6-yl)-1-methyl-1H-pyrazol-3-yl)-2-(3-(trifluoromethyl)phenyl)propanamide], the IC50 at IRE1a [1] was in the range of 5 to 50 nM. This compound also registered an EC50 on IRE1a [2] above 100 nM.

With `CCc1cc(-c2cc(NC(=O)Cc3cccc(C(F)(F)F)c3)nn2C)cc2cnc(N[C@H]3CC[C@H](N)CC3)nc12` [Compound 2, N-(5-(2-(((1r,4r)-4-aminocyclohexyl)amino)-8-ethylquinazolin-6-yl)-1-methyl-1H-pyrazol-3-yl)-2-(3-(trifluoromethyl)phenyl)acetamide], at IRE1a [1], the IC50 was at most 5 nM. This compound also gave a half-maximal effective concentration (EC50) on IRE1a [2] of 50 to 100 nM.

Consider `CCc1cc(-c2cc(NC(=O)Cc3cc(C(F)(F)F)ccc3OC)nn2C)cc2cnc(N[C@H]3CC[C@H](N)CC3)nc12` [Compound 43, N-(5-(2-(((1r,4r)-4-aminocyclohexyl)amino)-8-ethylquinazolin-6-yl)-1-methyl-1H-pyrazol-3-yl)-2-(2-methoxy-5-(trifluoromethyl)phenyl)acetamide], for which the IC50 on IRE1a [1] was at most 5 nM. Also, the EC50 on IRE1a [2] lay within 5 to 50 nM.

On to `CCc1cc(-c2cc(NC(=O)Cc3ccc(OC4CCN(C)CC4)c(C(F)(F)F)c3)nn2C)cc2cnc(N[C@H]3CC[C@H](N)CC3)nc12` [Compound 32, N-(5-(2-(((1r,4r)-4-aminocyclohexyl)amino)-8-ethylquinazolin-6-yl)-1-methyl-1H-pyrazol-3-yl)-2-(4-((1-methylpiperidin-4-yl)oxy)-3-(trifluoromethyl)phenyl)acetamide], for which the IC50 on IRE1a [1] is at most 5 nM. At IRE1a [2], the concentration giving a half-maximal response (EC50) was at most 5 nM.

On IRE1a [1], `Cn1nc(NC(=O)Cc2cccc(C(F)(F)F)c2)cc1-c1ccc2nc(N[C@H]3CC[C@H](N)CC3)ncc2c1` [Compound 1, N-(5-(2-(((1r,4r)-4-aminocyclohexyl)amino)quinazolin-6-yl)-1-methyl-1H-pyrazol-3-yl)-2-(3-(trifluoromethyl)phenyl)acetamide] showed an IC50 of 50 to 100 nM. Also, the EC50 on IRE1a [2] is above 100 nM.

In turn, `CCc1cc(-c2cc(NC(=O)Cc3ccc(Cl)c(C(F)(F)F)c3)nn2C)cc2cnc(N[C@H]3CC[C@H](N)CC3)nc12` [Compound 18, N-(5-(2-(((1r,4r)-4-aminocyclohexyl)amino)-8-ethylquinazolin-6-yl)-1-methyl-1H-pyrazol-3-yl)-2-(4-chloro-3-(trifluoromethyl)phenyl)acetamide] had an IC50 against IRE1a [1] of 5 to 50 nM. This compound also returned an EC50 on IRE1a [2] above 100 nM.

At IRE1a [1], `CCc1cc(-c2cc(NC(=O)C(CC)c3ccccc3)nn2C)cc2cnc(N[C@H]3CC[C@H](N)CC3)nc12` (some centres unmarked) [Compound 16, N-(5-(2-(((1r,4r)-4-aminocyclohexyl)amino)-8-ethylquinazolin-6-yl)-1-methyl-1H-pyrazol-3-yl)-2-phenylbutanamide] registered an IC50 of at most 5 nM. Moreover, on IRE1a [2], the half-maximal effective concentration (EC50) was above 100 nM.

At IRE1a [1], `CCc1cc(-c2cc(NC(=O)Cc3cccc(C(F)(F)F)c3)nn2C)cc2cnc(N[C@H]3CC[C@H](N(C)C)CC3)nc12` [Compound 39, N-(5-(2-(((1r,4r)-4-(dimethylamino)cyclohexyl)amino)-8-ethylquinazolin-6-yl)-1-methyl-1H-pyrazol-3-yl)-2-(3-(trifluoromethyl)phenyl)acetamide] gave an IC50 of at most 5 nM. This compound came in with an EC50 on IRE1a [2] of 5 to 50 nM.

Regarding `CCc1cc(-c2cc(NC(=O)Cc3cc(C(F)(F)F)ccc3C(F)(F)F)nn2C)cc2cnc(N[C@H]3CC[C@H](NC(C)=O)CC3)nc12` [Compound 41, N-(5-(2-(((1r,4r)-4-acetamidocyclohexyl)amino)-8-ethylquinazolin-6-yl)-1-methyl-1H-pyrazol-3-yl)-2-(2,5-bis(trifluoromethyl)phenyl)acetamide], the IC50 at IRE1a [1] was above 100 nM. Moreover, the EC50 on IRE1a [2] is above 100 nM.

With `CCc1cc(-c2cc(NC(=O)Nc3cccc(C(F)(F)F)c3)nn2C)cc2cnc(N[C@H]3CC[C@H](N)CC3)nc12` [Compound 19, 1-(5-(2-(((1r,4r)-4-aminocyclohexyl)amino)-8-ethylquinazolin-6-yl)-1-methyl-1H-pyrazol-3-yl)-3-(3-(trifluoromethyl)phenyl)urea], at IRE1a [1], the IC50 was at most 5 nM. This compound yielded an EC50 on IRE1a [2] of 5 to 50 nM.

Turning to `CCc1cc(-c2cc(NC(=O)Cc3cc(C(F)(F)F)ccc3C(F)(F)F)nn2C)cc2cnc(N[C@H]3CC[C@H](N)CC3)nc12` [Compound 12, N-(5-(2-(((1r,4r)-4-aminocyclohexyl)amino)-8-ethylquinazolin-6-yl)-1-methyl-1H-pyrazol-3-yl)-2-(2,5-bis(trifluoromethyl)phenyl)acetamide], the IC50 at IRE1a [1] was at most 5 nM. In addition, the “Mean EC50” value at IRE1a [2] was “A-B”.

On IRE1a [1], `CCc1cc(-c2cc(CC(=O)Nc3ccc(OCCCNC)c(C(F)(F)F)c3)nn2C)cc2cnc(N[C@H]3CC[C@H](N)CC3)nc12` [Compound 37, 2-(5-(2-(((1r,4r)-4-aminocyclohexyl)amino)-8-ethylquinazolin-6-yl)-1-methyl-1H-pyrazol-3-yl)-N-(4-(3-(methylamino)propoxy)-3-(trifluoromethyl)phenyl)acetamide] displayed a half-inhibitory concentration (IC50) of at most 5 nM. On IRE1a [2], the EC50 lay in the range of 5 to 50 nM.

Consider `CCc1cc(-c2cc(NC(=O)Cc3cc(C(F)(F)F)ccc3C(F)(F)F)nn2C)cc2cnc(N[C@H]3CC[C@H](NC(=O)COC)CC3)nc12` [Compound 42, 2-(2,5-bis(trifluoromethyl)phenyl)-N-(5-(8-ethyl-2-(((1r,4r)-4-(2-methoxyacetamido)cyclohexyl)amino)quinazolin-6-yl)-1-methyl-1H-pyrazol-3-yl)acetamide], for which the IC50 at IRE1a [1] is above 100 nM. Moreover, the EC50 at IRE1a [2] was above 100 nM.

Compound `CCc1cc(-c2cc(NC(=O)Cc3cc(F)cc(C(F)(F)F)c3)nn2C)cc2cnc(N[C@H]3CC[C@H](N)CC3)nc12` [Compound 20, N-(5-(2-(((1r,4r)-4-aminocyclohexyl)amino)-8-ethylquinazolin-6-yl)-1-methyl-1H-pyrazol-3-yl)-2-(3-fluoro-5-(trifluoromethyl)phenyl)acetamide] showed an IC50 on IRE1a [1] of 5 to 50 nM.

In turn, `CCc1cc(-c2cc(NC(=O)Cc3cc(C(F)(F)F)ccc3C(F)(F)F)nn2C)cc2cnc(N[C@H]3CC[C@](C)(N)CC3)nc12` [Compound 49, N-(5-(2-(((1r,4r)-4-amino-4-methylcyclohexyl)amino)-8-ethylquinazolin-6-yl)-1-methyl-1H-pyrazol-3-yl)-2-(2,5-bis(trifluoromethyl)phenyl)acetamide] had an IC50 against IRE1a [1] of 50 to 100 nM.

`CCc1cc(-c2cc(NC(=O)Cc3cc(C(F)(F)F)cc(C(F)(F)F)c3)nn2C)cc2cnc(N[C@H]3CC[C@H](N)CC3)nc12` [Compound 5, N-(5-(2-(((1r,4r)-4-aminocyclohexyl)amino)-8-ethylquinazolin-6-yl)-1-methyl-1H-pyrazol-3-yl)-2-(3,5-bis(trifluoromethyl)phenyl)acetamide] yielded an IC50 against IRE1a [1] of 5 to 50 nM.

These data come from US10392367B2, “IRE1 small molecule inhibitors” (QUENTIS THERAPEUTICS, INC., priority 2017, dated 2019).
